From PMC6479349, “Derivatives of 3-Aminopyrazine-2-carboxamides: Synthesis, Antimicrobial Evaluation, and in Vitro Cytotoxicity” (Molecules, 2019)
Converted amounts (≈) assume the structure as drawn. “And” between values parts separate entries of the source, which are not always exact repeats. Equal values may be shown once. Read-outs that look alike come from different tables or passages of the source.

Assays:
[1] = system: Pseudomonas aeruginosa CCM 3955; design: method as in PMID 26084645; conditions: previously published positional isomer; cited from earlier work
[2] = system: Mycobacterium tuberculosis H37Rv; test: Antimycobacterial microdilution broth MIC (Alamar Blue); assay type: cell-based
[3] = system: M. kansasii CNCTC My 235/80; test: as above; assay type: cell-based, Mycobacterium kansasii; conditions: for MIC: Mycobacterium kansasii
[4] = system: Mycobacterium smegmatis DSM 43465; test: Antimycobacterial microdilution broth panel MIC (resazurin); assay type: cell-based
[5] = system: Trichophyton interdigitale CCM 8377; test: Antifungal microdilution broth MIC; conditions: Trichophyton interdigitale, CCM8377, 72 h
[6] = Lipophilicity by reverse phase HPLC (log k); conditions: RP-HPLC C18, MeOH 70% / H2O 30%, 30 °C
Method: The mobile phase consisted of MeOH (HPLC grade, 70%) and H2O (HPLC-Milli-Q Grade, 30%). The flow rate was 1.0 mL/min, samples were injected in a volume of 20 µL, and the column temperature was 30 °C. Detection and monitoring wavelength were 210 nm and 270 nm, respectively. Retention times (Rt) were measured in minutes. The dead time of the system (Dt) was determined as the retention time of the KI methanolic solution. Capacity factors k for individual compounds were calculated according to the formula k = (Rt – Dt)/Dt. Capacity factor k was converted to log scale and (log k) and used as a measure of lipophilicity.

[7] = In vitro cytotoxicity, CellTiter 96 Aqueous One; conditions: human
tested bacterial strains = test: Antibacterial microdilution broth screening, strain not specified; conditions: read-out: MIC against the tested strains (antibacterial)
[8] = system: Ataxia Telangiectasia and Rad3 Related (ATR) protein kinase; design: method as in doi:10.1007/s00044-013-0665-6; conditions: cited from earlier work
[9] = Solubility in the cytotoxicity testing medium; conditions: cytotoxicity assay medium; highest tested concentration 50 µM
HepG2 cell line = test: In vitro cytotoxicity, CellTiter 96 Aqueous One
[10] = system: Staphylococcus aureus CCM 4223; test: Antibacterial microdilution broth MIC
[11] = system: Staphylococcus aureus methicillin resistant CCM 4750; test: Antibacterial microdilution broth MIC
[12] = system: Staphylococcus epidermidis 112-2016; test: Antibacterial microdilution broth MIC
[13] = system: M. avium ssp. avium CNCTC My 80/72; test: Antimycobacterial microdilution broth MIC (Alamar Blue); assay type: cell-based, Mycobacterium avium
[14] = system: Mycobacterium aurum DSM 43999; test: Antimycobacterial microdilution broth panel MIC (resazurin); assay type: cell-based; conditions: Mycolicibacterium aurum, DSM43999
C. krusei CCM 8271 = test: Antifungal microdilution broth MIC; conditions: Pichia kudriavzevii, CCM8271, 48 h, read-out: MIC C. krusei (standards)
C. parapsilosis CCM 8260 = test: Antifungal microdilution broth MIC; conditions: Lodderomyces parapsilosis, CCM8260, 48 h, read-out: MIC C. parapsilosis (standards)
C. tropicalis CCM 8264 = test: Antifungal microdilution broth MIC; conditions: Candida tropicalis, CCM8264, 48 h, read-out: MIC C. tropicalis (standards)
[15] = system: Aspergillus flavus CCM 8363; test: Antifungal microdilution broth MIC; conditions: CCM8363, 48 h, read-out: MIC Aspergillus flavus (standards)
[16] = system: Lichtheimia corymbifera CCM 8077; test: Antifungal microdilution broth MIC; conditions: CCM8077, 48 h, read-out: MIC Lichtheimia corymbifera (standards)
[17] = system: Enterococcus faecalis CCM 4224; test: Antibacterial microdilution broth MIC; conditions: CCM4224, 48 h, read-out: MIC Enterococcus faecalis (standards)
[18] = system: Escherichia coli CCM 3954; test: Antibacterial microdilution broth MIC; conditions: CCM3954, 48 h, read-out: MIC Escherichia coli (standards)
[19] = system: Klebsiella pneumoniae 64-2016; test: Antibacterial microdilution broth MIC; conditions: Klebsiella pneumoniae, 642016, 48 h, read-out: MIC Klebsiella pneumonia (standards)
[20] = system: Serratia marcescens 62-2016; test: Antibacterial microdilution broth MIC; conditions: Serratia marcescens, 622016, 48 h, read-out: MIC Serratia marcescens (standards)
[21] = system: Pseudomonas aeruginosa CCM 3955; test: Antibacterial microdilution broth MIC; conditions: CCM3955, 48 h, read-out: MIC Pseudomonas aeruginosa (standards)
[22] = system: Candida albicans CCM 8320; test: Antifungal microdilution broth MIC; conditions: CCM8320, 48 h, read-out: MIC Candida albicans (standards)
[23] = system: Aspergillus fumigatus ATCC 204305; test: Antifungal microdilution broth MIC; conditions: ATCC204305, 48 h, read-out: MIC Aspergillus fumigatus (standards)
[24] = M. tuberculosis H37Rv, value in parentheses
[25] = Mycobacterium tuberculosis, H37RV, M. tuberculosis H37Rv, value in parentheses
[26] = Mycobacterium tuberculosis, H37RV, pH 6.6, M. tuberculosis H37Rv, Middlebrook 7H9 pH 6.6
[27] = Mycolicibacterium smegmatis, DSM43465
[28] = Mycolicibacterium smegmatis, DSM43465, value in parentheses
[29] = read-out: MIC Trichophyton interdigitale (standards)
[30] = CCM4223, 48 h, read-out: MIC Staphylococcus aureus (standards)
[31] = CCM4750, 48 h, read-out: MIC Staphylococcus aureus methicillin resistant (standards)
[32] = Staphylococcus epidermidis, 1122016, 48 h, read-out: MIC Staphylococcus epidermidis (standards)

Compound: Nc1cnc(C(=O)Nc2ccc(C(F)(F)F)cc2)cn1 [5-amino-N-(4-(trifluoromethyl)phenyl)pyrazine-2-carboxamide]
- MIC P. aeruginosa [1]: 250 µM (≈ 70.6 µg/mL)

Compound: CCCCCCNC(=O)c1nccnc1N [Compound 10, 3-Amino-N-hexylpyrazine-2-carboxamide]
- MIC [2, 24]: 449.9 µM
- MIC [2, 25]: 450 µM
- MIC [2, 26]: 100 µg/mL
- MIC [3]: 100 µg/mL and 450 µM
- MIC [4, 27]: 250 µg/mL
- MIC [4, 28]: 1120 µM
- MIC ([5]; read-out: MIC72h TI): 250 µM
- log k [6]: 0.569
- IC50 at 24 h [7]: 389 µM
- MIC (tested bacterial strains): 500 µM (≈ 111 µg/mL)

Compound: CCCCCCCNC(=O)c1nccnc1N [Compound 11, 3-Amino-N-heptylpyrazine-2-carboxamide]
- MIC [2, 24]: 211.6 µM
- MIC [2, 25]: 212 µM
- MIC [2, 26]: 50 µg/mL
- MIC [3]: 50 µg/mL and 212 µM
- MIC [4, 27]: 62.5 µg/mL
- MIC [4, 28]: 264 µM
- MIC ([4]; value in parentheses): 264.5 µM
- MIC ([5]; read-out: MIC72h TI): 500 µM
- log k [6]: 0.813
- MIC (tested bacterial strains): 250 µM (≈ 59.1 µg/mL)

Compound: CCCCCCCCNC(=O)c1nccnc1N [Compound 12, 3-Amino-N-octylpyrazine-2-carboxamide]
- MIC [2, 24]: 99.9 µM
- MIC [2, 25]: 100 µM
- MIC [2, 26]: 25 µg/mL
- MIC [3]: 25 µg/mL and 100 µM
- MIC [4, 27]: 62.5 µg/mL
- MIC [4, 28]: 250 µM
- MIC ([4]; value in parentheses): 249.7 µM
- MIC ([5]; read-out: MIC72h TI): 250 µM
- log k [6]: 1.057
- MIC (tested bacterial strains): 62.5 µM (≈ 15.6 µg/mL)

Compound: Nc1nccnc1C(=O)Nc1ccccc1 [Compound 13, 3-Amino-N-phenylpyrazine-2-carboxamide]
- MIC [2, 25]: > 467 µM
- MIC [2, 26]: > 100 µg/mL
- MIC [4, 27]: > 500 µg/mL
- MIC [4, 28]: > 2330 µM
- inhibitory effects on ATR protein kinase [8]: inhibitory effects
- log k [6]: 0.189

Compound: COc1ccc(NC(=O)c2nccnc2N)c(OC)c1 [Compound 17, 3-Amino-N-(2,4-dimethoxyphenyl)pyrazine-2-carboxamide]
- MIC [2, 24]: 45.6 µM
- MIC [2, 25]: 46 µM
- MIC [2, 26]: 12.5 µg/mL
- MIC [4, 27]: > 500 µg/mL
- MIC [4, 28]: > 1820 µM
- log k [6]: 0.37
- solubility in the testing medium [9]: decreased solubility
- IC50 at 24 h [7]: > 50 µM
- cytotoxicity against HepG2 (HepG2 cell line): nontoxic

Compound: Nc1nccnc1C(=O)Nc1ccc(C(F)(F)F)cc1 [Compound 20, 3-Amino-N-(4-(trifluoromethyl)phenyl)pyrazine-2-carboxamide]
- MIC [2, 25]: 177 µM
- MIC [2, 26]: 50 µg/mL
- MIC [4, 27]: 31.2 µg/mL
- MIC [4, 28]: 111 µM
- MIC ([4]; value in parentheses): 110.7 µM
- MIC ([10]; CCM4223, read-out: MIC Staphylococcus aureus): 31.2 µM
- MIC ([11]; CCM4750|MRSA, read-out: MIC methicillin resistant S. aureus (MRSA)): 62.5 µM
- MIC ([12]; Staphylococcus epidermidis, 1122016, read-out: MIC S. epidermidis): 62.5 µM
- log k [6]: 0.525
- IC50 at 24 h [7]: 41.4 µM

Compound: NNC(=O)c1ccncc1 [INH, isoniazid, reference compound]
- MIC [2, 26]: 0.1 to 0.2 µg/mL
- MIC M. kansasii [3]: 3.13 to 12.5 µg/mL
- MIC M. avium [13]: 6.25 to 12.5 µg/mL
- MIC M. smegmatis [4]: 7.81 to 15.62 µg/mL
- MIC [4, 27]: 7.81 to 15.6 µg/mL
- MIC [14]: 1.95 to 3.91 µg/mL (≈ 14.2 to 28.5 µM)

Compound: CO[C@H]1/C=C/O[C@@]2(C)Oc3c(C)c(O)c4c(O)c(c(/C=N/N5CCN(C)CC5)c(O)c4c3C2=O)NC(=O)/C(C)=C\C=C\[C@H](C)[C@H](O)[C@@H](C)[C@@H](O)[C@@H](C)[C@H](OC(C)=O)[C@@H]1C [RIF, rifampicin, reference compound]
- MIC [4, 27]: 12.5 to 25 µg/mL
- MIC [14]: 0.78 to 1.56 µg/mL (≈ 0.948 to 1.9 µM)

Compound: C[C@@H]1[C@H](O)[C@@H](C)/C=C/C=C/C=C/C=C/C=C/C=C/C=C/[C@H](O[C@@H]2O[C@H](C)[C@@H](O)[C@H](N)[C@@H]2O)C[C@@H]2O[C@](O)(C[C@@H](O)C[C@@H](O)[C@H](O)CC[C@@H](O)C[C@@H](O)CC(=O)O[C@H]1C)C[C@H](O)[C@H]2C(=O)O [amphotericin B]
- MIC (C. krusei CCM 8271): 1 µg/mL (≈ 1.08 µM)
- MIC (C. parapsilosis CCM 8260): 0.5 µg/mL (≈ 0.541 µM)
- MIC (C. tropicalis CCM 8264): 1 µg/mL (≈ 1.08 µM)
- MIC [15]: 8 µg/mL (≈ 8.66 µM)
- MIC [16]: 0.5 µg/mL (≈ 0.541 µM)
- MIC [5, 29]: 2 µg/mL

Compound: O=C(O)c1cn(C2CC2)c2cc(N3CCNCC3)c(F)cc2c1=O [ciprofloxacin]
- MIC [4, 27]: 0.0625 to 0.125 µg/mL
- MIC [14]: 0.00781 to 0.0156 µg/mL (≈ 0.0236 to 0.0472 µM)
- MIC [10, 30]: 0.128 to 0.256 µg/mL
- MIC [11, 31]: 0.128 µg/mL
- MIC [12, 32]: > 1.02 µg/mL
- MIC [17]: 0.512 µg/mL (≈ 1.55 µM)
- MIC [18]: 0.008 µg/mL (≈ 0.0241 µM)
- MIC [19]: > 1.02 µg/mL
- MIC [20]: 0.256 µg/mL (≈ 0.773 µM)
- MIC [21]: 0.128 µg/mL (≈ 0.386 µM)

Compound: CNC(C)C1CCC(N)C(OC2C(N)CC(N)C(OC3OCC(C)(O)C(NC)C3O)C2O)O1 (stereo not drawn) [gentamicin]
- MIC [10, 30]: 1 µg/mL
- MIC [11, 31]: 16 to 32 µg/mL
- MIC [12, 32]: > 8 µg/mL
- MIC [17]: 8 µg/mL (≈ 16.8 µM)
- MIC [18]: 1 to 2 µg/mL (≈ 2.09 to 4.19 µM)
- MIC [19]: > 8 µg/mL
- MIC [20]: 2 µg/mL (≈ 4.19 µM)
- MIC [21]: 0.5 µg/mL (≈ 1.05 µM)

Compound: C[C@@H](c1ncncc1F)[C@](O)(Cn1cncn1)c1ccc(F)cc1F [voriconazole]
- MIC [22]: > 16 µg/mL
- MIC (C. krusei CCM 8271): 0.5 µg/mL (≈ 1.43 µM)
- MIC (C. parapsilosis CCM 8260): 8 µg/mL (≈ 22.9 µM)
- MIC (C. tropicalis CCM 8264): > 16 µg/mL
- MIC [15]: > 16 µg/mL
- MIC [16]: > 16 µg/mL
- MIC [5, 29]: > 16 µg/mL
- MIC [23]: 1 µg/mL (≈ 2.86 µM)
